According to DBAASP:
≈ marks a conversion by molar mass, not a printed value.

Legend:
Assay in all cases: ≥ marks a high value that may be exact or a test limit, other limits are often not marked, values filed in µg/mL are converted to µM
[1] = system: Escherichia coli ATCC 25922
[2] = system: Staphylococcus aureus ATCC 29213
[3] = system: Escherichia coli
[4] = system: Staphylococcus aureus

SMILES | MIC [1] [µM] | MIC [2] [µM] | MIC [3] [µM] | MIC [4] [µM]
CC(=O)N[C@@H](CCCCN)C(=O)N[C@@H](CC(C)C)C(=O)N[C@@H](CC(C)C)C(=O)N[C@@H](CCCCN)C(=O)N[C@@H](CC(C)C)C(=O)N[C@@H](CC(C)C)C(=O)N[C@@H](CCCCN)C(=O)N[C@@H](CCCCN)C(=O)N[C@@H](CC(C)C)C(=O)N1CCC[C@H]1C(=O)N[C@@H](CCCCN)C(=O)N[C@@H](CC(C)C)C(=O)N[C@@H](CC(C)C)C(=O)N[C@@H](CCCCN)C(N)=O [KLLKLLKKLPKLLK] | 40 (≈ 68.7 µg/mL) | 40 (≈ 68.7 µg/mL) |  | 
CC(C)C[C@H](NC(=O)[C@H](CCCCN)NC(=O)[C@H](CC(C)C)NC(=O)[C@H](CC(C)C)NC(=O)[C@H](CCCCN)NC(=O)[C@H](CCCCN)NC(=O)[C@H](CC(C)C)NC(=O)[C@H](CC(C)C)NC(=O)[C@H](CCCCN)NC(=O)[C@H](C)NC(=O)[C@H](CC(C)C)NC(=O)[C@H](CCCCN)NC(=O)[C@H](CCCCN)NC(=O)[C@@H](N)CC(C)C)C(=O)N[C@@H](C)C(=O)NCC(=O)O [LKKLAKLLKKLLKLAG] | 10 (≈ 17.8 µg/mL) | 10 (≈ 17.8 µg/mL) |  | 
CC(C)C[C@H](NC(=O)[C@H](C)NC(=O)[C@H](CCCCN)NC(=O)[C@H](CC(C)C)NC(=O)[C@H](CC(C)C)NC(=O)[C@H](CCCCN)NC(=O)[C@H](CCCCN)NC(=O)[C@@H](N)CC(C)C)C(=O)N[C@@H](CCCCN)C(=O)N[C@@H](CCCCN)C(=O)N[C@@H](CC(C)C)C(=O)N[C@@H](CC(C)C)C(=O)N[C@@H](CCCCN)C(=O)N[C@@H](CC(C)C)C(=O)N[C@@H](C)C(=O)NCC(=O)O [LKKLLKALKKLLKLAG] | 10 (≈ 17.8 µg/mL) | 10 (≈ 17.8 µg/mL) |  | 

The remaining lines, values ahead:

MIC [1] [µM] | MIC [2] [µM] | MIC [3] [µM] | MIC [4] [µM] | SMILES
10 (≈ 16.6 µg/mL) | > 40 |  |  | CC[C@H](C)[C@H](NC(=O)[C@H](CCCN=C(N)N)NC(=O)[C@H](CCC(N)=O)NC(=O)[C@@H](NC(=O)[C@@H](NC(=O)[C@H](CCCN=C(N)N)NC(=O)[C@H](CCCCN)NC(=O)[C@@H](N)Cc1ccccc1)[C@@H](C)CC)C(C)C)C(=O)N[C@@H](CCCCN)C(=O)N[C@@H](CC(=O)O)C(=O)N[C@@H](CO)C(=O)N[C@@H](CC(C)C)C(=O)N[C@@H](CCCN=C(N)N)C(=O)O [FKRIVQRIKDSLR]
10 (≈ 17.2 µg/mL) | 10 (≈ 17.2 µg/mL) |  |  | CC(=O)N[C@@H](CCCCN)C(=O)N[C@@H](CC(C)C)C(=O)N1CCC[C@H]1C(=O)N[C@@H](CCCCN)C(=O)N[C@@H](CC(C)C)C(=O)N[C@@H](CC(C)C)C(=O)N[C@@H](CCCCN)C(=O)N[C@@H](CCCCN)C(=O)N[C@@H](CC(C)C)C(=O)N[C@@H](CC(C)C)C(=O)N[C@@H](CCCCN)C(=O)N[C@@H](CC(C)C)C(=O)N[C@@H](CC(C)C)C(=O)N[C@@H](CCCCN)C(N)=O [KLPKLLKKLLKLLK]
7.07 (≈ 12.1 µg/mL) | 7.07 (≈ 12.1 µg/mL) |  |  | CC(=O)N[C@@H](CCCCN)C(=O)N1CCC[C@H]1C(=O)N[C@@H](CC(C)C)C(=O)N[C@@H](CCCCN)C(=O)N[C@@H](CC(C)C)C(=O)N[C@@H](CC(C)C)C(=O)N[C@@H](CCCCN)C(=O)N[C@@H](CCCCN)C(=O)N[C@@H](CC(C)C)C(=O)N[C@@H](CC(C)C)C(=O)N[C@@H](CCCCN)C(=O)N[C@@H](CC(C)C)C(=O)N[C@@H](CC(C)C)C(=O)N[C@@H](CCCCN)C(N)=O [KPLKLLKKLLKLLK]
2 (≈ 3.7 µg/mL) |  | 5.4 (≈ 9.99 µg/mL) | 2.7 (≈ 5 µg/mL) | CC(C)C[C@H](NC(=O)[C@H](Cc1ccccc1)NC(=O)[C@H](C)NC(=O)[C@H](Cc1c[nH]c2ccccc12)NC(=O)[C@H](Cc1c[nH]c2ccccc12)NC(=O)[C@H](Cc1c[nH]c2ccccc12)NC(=O)[C@H](C)NC(=O)[C@H](Cc1ccccc1)NC(=O)[C@H](CCCN=C(N)N)NC(=O)[C@H](CCCN=C(N)N)NC(=O)[C@@H](N)C(C)C)C(=O)N[C@@H](CCCN=C(N)N)C(=O)N[C@@H](CCCN=C(N)N)C(N)=O [VRRFAWWWAFLRR]
2.83 (≈ 5.3 µg/mL) |  | 10.7 (≈ 20 µg/mL) | 2.66 (≈ 5 µg/mL) | CC(C)C[C@H](NC(=O)[C@H](Cc1ccccc1)NC(=O)[C@H](C)NC(=O)[C@H](Cc1c[nH]c2ccccc12)NC(=O)[C@H](Cc1c[nH]c2ccccc12)NC(=O)[C@H](Cc1c[nH]c2ccccc12)NC(=O)[C@@H]1CCCN1C(=O)[C@H](Cc1ccccc1)NC(=O)[C@H](CCCN=C(N)N)NC(=O)[C@H](CCCN=C(N)N)NC(=O)[C@@H](N)C(C)C)C(=O)N[C@@H](CCCN=C(N)N)C(=O)N[C@@H](CCCN=C(N)N)C(N)=O [VRRFPWWWAFLRR]
